Series [1] has as its system glutamine synthetase (GS). As to conditions: cited from earlier work.
Series [2] deals with plants. As to conditions: in vivo; cited from earlier work.
The next series relates to R. meliloti. Description: Sensitivity of R. meliloti to PTC and PTT. Type of series: cell-based, Rhizobium meliloti. The source says:
Plasmids pIB17.1 and pIB17.2 were therefore transferred by means of a 2 factor cross into the Rhizobium meliloti strain 2011.

The test system of another series is Nicotiana tabacum. Description: Treatment of Nicotiana tabacum plants carrying the deacetylase gene. Type of series: in vivo. As to conditions: transgenic Nicotiana tabacum, killed by liberated PTC or PTT. How it is done:
The deacetylase gene which was modified in Example 1 was transferred into A. tumefaciens LBA4404 using a two-factor cross. Nicotiana tabacum leaf disks were incubated with the resulting strains LBA4404/17.1 and LBA4404/17.2 and, after 3 days, transferred to a kanamycin-containing shoot-inducing medium. Southern hybridization can be used to test regenerating kanamycin-resistant shoots for the presence of the deacetylase gene.

For another series, the system named is wild-type plant. Description: Injection of N-acetyl-PTC or N-acetyl-PTT into tobacco plants: stability, transport, effect on wild-type plant. Type of series: in vivo.
Series [3] relates to plants. Description: Herbicidal activity, uptake, transport and deacetylation in plants. Type of series: in vivo. As to conditions: for deacetylation activity in plants / uptake, transport and degradation in plants: in vivo; for herbicidal activity: plants without deacetylase gene. The text has this:
In this way, the above-described 2-gene system can be reduced to a 1-gene system and thereby crucially simplified, as explained in more detail below: any plants can be transformed with a Streptomycetes-derived deacetylase gene under the control of a tissue-specific promoter. Following application of N-acetylphosphinothricin or N-acetylphosphinothricin-tripeptide, the tissue-specific expression leads to the immediate death of the corresponding tissue.

The subject of a further series is GS. Particulars: E. coli with endogenous deacetylase activity.
In series [4] the test system is Gram-positive and Gram-negative bacteria. As to conditions: cited from earlier work.
The next series relates to Botrytis cinerea. As to conditions: cited from earlier work.

Take “2-amino-4-methylphosphinobutyric acid [PTC]”: the “inhibitor of glutamine synthetase (GS)” value in series [1] is “inhibitor of glutamine synthetase”. In addition, in the series on plants [2], the herbicidal action result was “acts as a total herbicide”. For the same molecule, the “sensitivity of R. meliloti” value in the series with R. meliloti is recorded as “reacts very sensitively”.
`CC(=O)NC(CCP(C)(=O)O)C(=O)O` (stereo not drawn) [N-acetyl-PTC, N-acetylphosphinothricin]: the “effect on plants containing the deacetylase gene” value in the series on Nicotiana tabacum is “the plants are then killed”. The “stability and transport in the plant cell” value with wild-type plant (in vivo) was “stable in the plant cell and transported into all cells”. Moreover, the “consequences for the wild-type plant” value with wild-type plant is recorded as “Neither of the two substances has recognizably negative consequences”. Moreover, in the series with plants [3], the “deacetylation activity in plants” value is given as “No deacetylation activity”; the “uptake, transport and degradation in plants” value was “taken up by plants and transported and not degraded immediately”; the herbicidal activity entry is on record as “neither substance is herbicidally active”. Moreover, the “inhibition of GS activity after adding the substance” value with GS is listed as “efficient inhibition of GS activity”.
As to `CC(=O)NC(CCP(C)(=O)O)C(=O)NC(C)C(=O)NC(C)C(=O)O` (stereo not drawn) [N-acetyl-PTT, N-acetylphosphinothricin tripeptide], the “effect on plants containing the deacetylase gene” value in the series with Nicotiana tabacum is recorded as “the plants are then killed”. Moreover, the “consequences for the wild-type plant” value with wild-type plant is listed as “Neither of the two substances has recognizably negative consequences”. Also, in the series with plants [3], the “deacetylation activity in plants” value was “No deacetylation activity”; the “uptake, transport and degradation in plants” value is “taken up by plants and transported and not degraded immediately”; the herbicidal activity entry is given as “neither substance is herbicidally active”.
With `C[C@H](NC(=O)[C@H](C)NC(=O)[C@@H](N)CCP(C)(=O)O)C(=O)O` [PTT, phosphinothricylalanylalanine], the “activity against Gram-positive and Gram-negative bacteria” value in series [4] was “active against Gram-positive and Gram-negative bacteria”. Moreover, the “activity against the fungus Botrytis cinerea” value with Botrytis cinerea is “also against the fungus Botrytis cinerea”. Moreover, the “sensitivity of R. meliloti” value in the series with R. meliloti is “reacts very sensitively”.

The values are drawn from patent publication US6852909B2, “Process for producing female-sterile plants” (priority 1996, dated 2005).
